Experimental findings from PubChem BioAssay AID1902 (Broad Institute, 2009) are described below.

Active and inactive are the calls of the source.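 The calls were made as follows: active = EC50 no more than a set limit of log units above the highest dose; inactive = the rest.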

The target in the assay is S. pyogenes SKKanGAS, kanamycin survival, BacTiterGlo, 6 h. The experiment in a line: S. pyogenes SKKanGAS kanamycin growth inhibitors – SKKanGAS strain, luminescence, dose confirmation, streptokinase promoter inhibitor project, dose response (AID 1902).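 Also: lower survival reflects blocked streptokinase promoter driving kanamycin resistance gene.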
Consider `C/C(=N\NS(=O)(=O)c1ccc(C)cc1)c1ccc(C)o1`, for which the EC50 is > 15 µM (inactive).
As for `COc1ccc2c(c1)c(CC(=O)Nc1cccc(S(N)(=O)=O)c1)c(C)n2C(=O)c1ccc(Cl)cc1`, the figure is 3.28 µM; as for `Cc1cc2c(cc1C)-c1c(ssc1=Nc1ccc(S(N)(=O)=O)cc1)C(C)(C)N2`, 11.7 µM.
The figure for `CC(C)C[C@H](NC(=O)c1[nH]cnc1C(=O)Nc1ccccc1)C(=O)OC(C)(C)C` is 3.8 µM; for `N=C1S/C(=C\c2ccc(-c3cccc(Cl)c3)o2)C(=O)N1c1nccs1` it is < 0.06 µM; for `OC(CNCC1CCCO1)Cn1c2ccc(Br)cc2c2cc(Br)ccc21` (configuration not stated) it is 3.47 µM.
As for `CCOc1ccc(-n2c(O)c(/C=N/NC(=O)C3COc4ccccc4O3)c3ccccc3c2=O)cc1` (configuration not stated), the figure is 2.34 µM; as for `COc1ccc(CCNC(=O)CSc2nncn2N)cc1OC`, > 15 µM (inactive).
For `CCOC(=O)c1sc2nc3c(SCC(=O)O)cc(C(=O)c4cc(F)ccc4O)cn3c(=O)c2c1C`, the concentration giving a half-maximal response (EC50) was 2.11 µM.
As for `CCCCc1ccc(NC(=S)NCCc2ccc(F)cc2)cc1`, the figure is 5.7 µM; as for `Cc1ccc(C)c(-c2nnc(NC(=O)COc3ccccc3)o2)c1`, 1.7 µM; as for `CC(C)(CN=C1NS(=O)(=O)c2ccccc21)CNC(=O)c1ccccc1`, > 15 µM (inactive).
As for `O=C(Nc1cccc(Cl)c1)Nc1csc([N+](=O)[O-])c1`, the EC50 was 8.11 µM.
`O=C(Nc1nnc(C2=COCCO2)o1)c1ccc(Br)cc1`: the EC50 was 0.78 µM.
The figure for `CC1(C)S[C@@H]2[C@H](NC(=O)C(NC(=O)N3CCNC3=O)c3ccccc3)C(=O)N2[C@H]1C(=O)O` (some centres not stated) is < 0.06 µM; for `CCCN(CC1CC1)c1nc(C)nc(Nc2c(Cl)cc(Cl)cc2Cl)c1Cl` it is 1.26 µM; for `COc1ccc(-c2cc(-c3ccc(Cl)cc3)n[nH]2)c(O)c1` it is 8.75 µM.
As for `[O-][n+]1c2ccccc2[n+]([O-])c2cc(O)ccc21`, the EC50 was 5.86 µM.
In the case of `O=c1c2ccccc2sn1-c1cc(S(=O)(=O)N2CCOCC2)ccc1N1CCOCC1`, the half-maximal effective concentration (EC50) was 13.3 µM.
As for `Cc1cc(C)n(-c2nc(C)nc(NCc3ccccc3)n2)n1`, the figure is > 15 µM (inactive).
As for `CCOc1ccc2c(c1)C(=NNC(=O)c1ccncc1)c1cc(OCC)ccc1-2`, the figure is 1.57 µM; as for `Cc1ccc(C(=O)NC(=S)NNC(=O)c2ccccc2O)cc1`, 0.459 µM.
As for `CCOc1c(OC(C)=O)ccc(/C=C/c2ccc3cccc(OC(C)=O)c3n2)c1[N+](=O)[O-]`, the figure is 1.6 µM; as for `COc1ccc(-c2oc(NC(=O)CSc3ncn[nH]3)c(C#N)c2-c2ccc(OC)cc2)cc1`, 3.61 µM.
Take `Oc1cccc2ccc(/C=C/c3cccs3)nc12`: the EC50 is 2.91 µM.
The figure for `O=[N+]([O-])c1ccc(/C=[N+](\[O-])CCO)o1` is 5.78 µM; for `COc1ccc(C(=O)NNC(=S)NC(=O)c2ccccc2)cc1` it is 0.995 µM; for `Cc1c(NCc2cc(Cl)cc(Cl)c2O)c(=O)n(-c2ccccc2)n1C` it is 3.39 µM.
The figure for `CC(C)(C)c1ccc(C(=O)N2CCN(C(=O)c3ccco3)CC2)cc1` is > 15 µM (inactive); for `CCOC(=O)c1ccc(Nc2nc(C)nc3c2nnn3Cc2ccccc2)cc1` it is 6.69 µM.
The figure for `C/C(=C\C(=O)OCCCCCCCCC(=O)O)C[C@@H]1OC[C@H](C[C@@H]2O[C@H]2[C@@H](C)[C@H](C)O)[C@@H](O)[C@H]1O` is < 0.06 µM.
On to `Nc1c(C(=O)Nc2nc3ccccc3s2)sc2nc(-c3cccs3)ccc12`, for which the 50% effective concentration (EC50) was 6.67 µM.
With `COc1ccc(/C=C/C(=O)NC(=S)NNC(=O)c2cc(OC)c(OC)c(OC)c2)cc1`, the EC50 was 1.08 µM.
As for `O=C(Cc1cccs1)NNC(=S)NC(=O)c1ccccc1`, the figure is 3.29 µM; as for `CN(CC1CCCO1)S(=O)(=O)c1ccc(C(=O)Nc2ccc(F)cc2)cc1` (configuration not stated), > 15 µM (inactive); as for `Cc1ccc(C)c2sc(N3CCN(C(=O)c4ccc([N+](=O)[O-])o4)CC3)nc12`, 5.58 µM.
For the molecule `COc1cccc(-c2coc3cc4oc(=O)c(CCC(=O)O)c(C)c4cc23)c1`, the EC50 was 5.12 µM.
The figure for `CCCc1ccc(-c2cc(C(=O)N/N=C/c3ccc([N+](=O)[O-])o3)c3ccccc3n2)cc1` is 1.74 µM; for `Cc1ccc2c(c1)=C(c1sc(N(C)c3ccc(O)cc3)nc1O)C(=O)N=2` it is 6.72 µM.
The figure for `Cc1onc(-c2ccccc2)c1C(=O)NNC(=S)NC(=O)/C=C/c1cccs1` is 0.839 µM; for `COc1ccc(/C=C/c2ccc3cccc(O)c3n2)c(OC)c1OC` it is 3.27 µM; for `Oc1ccc(Oc2ccc(Oc3ccc(O)cc3)cc2)cc1` it is 5.25 µM.
The figure for `Cc1ccc(C(=O)Nc2nnc(C3=COCCO3)o2)cc1C` is 2.96 µM.
As for `COc1ccc(C(=O)NNC(=S)NC(=O)c2ccco2)cc1`, the concentration giving a half-maximal response (EC50) is 2.29 µM.
The figure for `Cc1ccc(S(=O)(=O)/N=C2\C=C(Nc3cccc(C(=O)O)c3)C(=O)c3ccccc32)cc1` is 2.43 µM; for `CCCCN(CCCC)c1nc(-c2ccncc2)nc2ccccc12` it is 4.24 µM.
The figure for `COc1ccccc1C(=O)NNC(=O)C(=O)Nc1ccc(C)c(Cl)c1` is 1.65 µM; for `Fc1ccc(CSc2nc3ccccc3[nH]2)c2ccccc12` it is 6.11 µM.
As for `CS(=O)(=O)c1ccc2nc(NC(=O)c3ccc(NS(=O)(=O)c4ccc(F)c(F)c4)cc3)sc2c1`, the figure is 0.622 µM; as for `O=C(NNC(=O)c1cc(-c2ccc(Cl)cc2)nc2ccccc12)c1csc(N2CCOCC2)n1`, 3.78 µM.
With `CCCCC(CC)C(=O)Oc1ccc(O)c(C(C)(C)C)c1` (configuration not stated), the EC50 is 2.89 µM.
The figure for `Cc1noc(C)c1CSc1nc2ccccc2nc1NS(=O)(=O)c1ccc(Cl)cc1` is 3.13 µM; for `O=C(O)CCCN1C(=O)/C(=C/c2cn(-c3ccccc3)nc2-c2cccs2)SC1=S` it is 2.72 µM; for `CC(Oc1ccc(Cl)cc1)C(=O)NNC(=S)NC(=O)c1ccco1` (configuration not stated) it is 0.325 µM.
On to `CC(C)(C)c1ccc(O)c(N=Cc2c(O)ccc3ccccc23)c1`, for which the EC50 is 5.12 µM.
As for `Oc1c(Cl)cc(Cl)cc1/C=N/NC(=S)NC1CC2C=CC1C2` (configuration not stated), the figure is 0.177 µM; as for `O=C(Cc1csc(NC(=O)Nc2cccc(Cl)c2)n1)NCc1ccccn1`, 6.87 µM; as for `CC/C(=N\NC(=S)Nc1cccc(C)c1)c1ccccc1`, 7.96 µM.
As for `Cc1ccc(NC(=O)CN(C)Cc2nc3c(Br)cc(Br)cc3c(=O)[nH]2)cc1`, the figure is 3.79 µM.
Consider `COc1ccc(C(C)=O)cc1COc1cc(C)c(Cl)c(C)c1`, for which the EC50 was > 15 µM (inactive).
The figure for `FC(F)(F)Oc1ccc(NC(=S)Nc2ccc(OC(F)(F)F)cc2)cc1` is 6.49 µM.
Regarding `CCn1c(=O)c(C(=O)NNC(=O)c2ccccc2)c(O)c2ccccc21`, the EC50 was 0.839 µM.
As for `Cc1ccc(NC(=S)c2nc3ccccc3[nH]2)cc1`, the figure is 1.08 µM.
As for `CCNc1nc(Oc2c(Cl)cccc2Cl)cc(C(F)(F)F)n1`, the figure is 6.58 µM; as for `CC(C)(C)c1ccc(S(=O)(=O)N2CCC(c3nc4ccc(Cl)cc4[nH]3)CC2)cc1`, 5.11 µM.
For `COc1ccc(NS(=O)(=O)c2cccc(NC(=O)CCC(=O)c3ccc(Cl)cc3)c2)cc1`, the concentration giving a half-maximal response (EC50) is 7.85 µM.
As for `O=C(O)CN1C(=O)/C(=C\c2ccccc2OCc2ccc(Cl)cc2Cl)SC1=S`, the figure is 2.73 µM.

In general, EC50 refers to the concentration giving half of the maximal effect.
